From PubChem BioAssay AID1918946 (Molecular Pharmacology Branch, DTP, NCI, 2023)
pIC50: −log10 of the molar value.

Test system: 885512-296-R-J2-PDC complex spheroid viability
Assay: Anticancer human tumor 885512-296-R-J2-PDC patient-derived breast carcinoma cell line growth inhibition
Conditions: for pIC50: curve of first compound; for viability, T/C: stronger effect = lower value
How it was run: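 Multicellular complex spheroids of tumor cells with human endothelial cells (HUVEC) and mesenchymal stem cells; the LSD1 inhibitor iadademstat was combined with standard-of-care or investigational agents. Top concentration at or near clinical Cmax, half-log dilutions; final DMSO ≤0.25%.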

[1] = second compound 0.1 µM, first compound 0.00316 µM
[2] = second compound 0.1 µM, first compound 0.01 µM
[3] = second compound 0.1 µM, first compound 0.0316 µM
[4] = second compound 0.1 µM, first compound 0.1 µM
[5] = second compound 0.1 µM, first compound 0.316 µM
[6] = second compound 0.1 µM, first compound 1 µM
[7] = second compound 0.316 µM, first compound 0.00316 µM
[8] = second compound 0.316 µM, first compound 0.01 µM
[9] = second compound 0.316 µM, first compound 0.0316 µM
[10] = second compound 0.316 µM, first compound 0.1 µM
[11] = second compound 0.316 µM, first compound 0.316 µM
[12] = second compound 0.316 µM, first compound 1 µM
[13] = second compound 1 µM, first compound 0.00316 µM
[14] = second compound 1 µM, first compound 0.01 µM
[15] = second compound 1 µM, first compound 0.0316 µM
[16] = second compound 1 µM, first compound 0.1 µM
[17] = second compound 1 µM, first compound 0.316 µM
[18] = second compound 1 µM, first compound 1 µM
[19] = second compound 3.16 µM, first compound 0.00316 µM
[20] = second compound 3.16 µM, first compound 0.01 µM
[21] = second compound 3.16 µM, first compound 0.0316 µM
[22] = second compound 3.16 µM, first compound 0.1 µM
[23] = second compound 3.16 µM, first compound 0.316 µM
[24] = second compound 3.16 µM, first compound 1 µM
[25] = second compound 10 µM, first compound 0.00316 µM
[26] = second compound 10 µM, first compound 0.01 µM
[27] = second compound 10 µM, first compound 0.0316 µM
[28] = second compound 10 µM, first compound 0.1 µM
[29] = second compound 10 µM, first compound 0.316 µM
[30] = second compound 10 µM, first compound 1 µM
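Further: spheroids exposed to agents for 7 days before viability read.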

With `O=C(C=Cn1cnc(-c2cc(C(F)(F)F)cc(C(F)(F)F)c2)n1)NNc1cnccn1` + NC1CC1c1ccc(-c2cccc(O)c2)cc1 the pIC50 (second compound 0.1 µM) was greater than 8.50, the pIC50 (second compound 0.316 µM) was greater than 8.50 and the pIC50 (second compound 1 µM) was greater than 8.50. The pIC50 (second compound 3.16 µM) was greater than 8.50, the pIC50 (second compound 10 µM) was greater than 8.50 and the viability, T/C [1] was 22.8%. For the same compound, the viability, T/C [2] was 11.1%, the viability, T/C [3] was 1.78% and the viability, T/C [4] was 0.68%. For the same compound, the viability, T/C [5] was 0.55%, the viability, T/C [6] was 0.47% and the viability, T/C [7] was 17.4%. The viability, T/C [8] was 11.5%, the viability, T/C [9] was 1.98% and the viability, T/C [10] was 0.67%. The viability, T/C [11] was 0.5%, the viability, T/C [12] was 0.4% and the viability, T/C [13] was 19%. The viability, T/C [14] was 10.3%, the viability, T/C [15] was 2.51% and the viability, T/C [16] was 0.72%. For the same compound, the viability, T/C [17] was 0.52%, the viability, T/C [18] was 0.58% and the viability, T/C [19] was 13.6%. It also gave a viability, T/C [20] of 10.3%, a viability, T/C [21] of 2.71% and a viability, T/C [22] of 0.8%. The viability, T/C [23] was 0.52%, the viability, T/C [24] was 0.63% and the viability, T/C [25] was 14.8%. For the same compound, the viability, T/C [26] was 8.29%, the viability, T/C [27] was 2.21% and the viability, T/C [28] was 0.82%. The viability, T/C [29] was 0.71% and the viability, T/C [30] was 0.78%.
`COc1cc(C2c3cc4c(cc3C(OC3OC5COC(C)OC5C(O)C3O)C3COC(=O)C23)OCO4)cc(OC)c1O` (stereo not given) + NC1CCC(NC2CC2c2ccccc2)CC1 showed a pIC50 (second compound 0.1 µM) of 7.17, a pIC50 (second compound 0.316 µM) of 7.22 and a pIC50 (second compound 1 µM) of 7.18. For the same compound, the pIC50 (second compound 3.16 µM) was 7.11, the pIC50 (second compound 10 µM) was 7.28 and the viability, T/C (second compound 0.1 µM, first compound 0.00949 µM) was 118%. It also gave a viability, T/C (second compound 0.1 µM, first compound 0.03 µM) of 95.8%, a viability, T/C (second compound 0.1 µM, first compound 0.0949 µM) of 31.2% and a viability, T/C (second compound 0.1 µM, first compound 0.3 µM) of 11.3%. It also gave a viability, T/C (second compound 0.1 µM, first compound 0.949 µM) of 10.2%, a viability, T/C (second compound 0.1 µM, first compound 3 µM) of 11.3% and a viability, T/C (second compound 0.316 µM, first compound 0.00949 µM) of 108%. The viability, T/C (second compound 0.316 µM, first compound 0.03 µM) was 90.7%, the viability, T/C (second compound 0.316 µM, first compound 0.0949 µM) was 24.3% and the viability, T/C (second compound 0.316 µM, first compound 0.3 µM) was 11.8%. The viability, T/C (second compound 0.316 µM, first compound 0.949 µM) was 9.27%, the viability, T/C (second compound 0.316 µM, first compound 3 µM) was 8.79% and the viability, T/C (second compound 1 µM, first compound 0.00949 µM) was 104%. The viability, T/C (second compound 1 µM, first compound 0.03 µM) was 86.4%, the viability, T/C (second compound 1 µM, first compound 0.0949 µM) was 33.4% and the viability, T/C (second compound 1 µM, first compound 0.3 µM) was 13%. It also gave a viability, T/C (second compound 1 µM, first compound 0.949 µM) of 6.51%, a viability, T/C (second compound 1 µM, first compound 3 µM) of 4.74% and a viability, T/C (second compound 3.16 µM, first compound 0.00949 µM) of 98.9%. The viability, T/C (second compound 3.16 µM, first compound 0.03 µM) was 105%, the viability, T/C (second compound 3.16 µM, first compound 0.0949 µM) was 39% and the viability, T/C (second compound 3.16 µM, first compound 0.3 µM) was 10.7%. The viability, T/C (second compound 3.16 µM, first compound 0.949 µM) was 6.97%, the viability, T/C (second compound 3.16 µM, first compound 3 µM) was 9.62% and the viability, T/C (second compound 10 µM, first compound 0.00949 µM) was 90.8%. The viability, T/C (second compound 10 µM, first compound 0.03 µM) was 64.6%, the viability, T/C (second compound 10 µM, first compound 0.0949 µM) was 35% and the viability, T/C (second compound 10 µM, first compound 0.3 µM) was 14.2%. For the same compound, the viability, T/C (second compound 10 µM, first compound 0.949 µM) was 5.81% and the viability, T/C (second compound 10 µM, first compound 3 µM) was 4.68%.
Compound `Nc1ncn(C2CC(O)C(CO)O2)c(=O)n1` (stereo not given) + NC1CCC(NC2CC2c2ccccc2)CC1 has a pIC50 (second compound 0.1 µM) of 7.51, a pIC50 (second compound 0.316 µM) of 7.52 and a pIC50 (second compound 1 µM) of 7.55. The pIC50 (second compound 3.16 µM) was 7.57, the pIC50 (second compound 10 µM) was 7.70 and the viability, T/C [1] was 91.3%. The viability, T/C [2] was 91.5%, the viability, T/C [3] was 46.9% and the viability, T/C [4] was 25.2%. For the same compound, the viability, T/C [5] was 12.7%, the viability, T/C [6] was 13.6% and the viability, T/C [7] was 105%. For the same compound, the viability, T/C [8] was 75.5%, the viability, T/C [9] was 53% and the viability, T/C [10] was 24.6%. For the same compound, the viability, T/C [11] was 14.8%, the viability, T/C [12] was 15.4% and the viability, T/C [13] was 101%. It also gave a viability, T/C [14] of 74.1%, a viability, T/C [15] of 47% and a viability, T/C [16] of 30.8%. It also gave a viability, T/C [17] of 14.5%, a viability, T/C [18] of 16.1% and a viability, T/C [19] of 80.1%. For the same compound, the viability, T/C [20] was 72.6%, the viability, T/C [21] was 44.4% and the viability, T/C [22] was 28.9%. It also gave a viability, T/C [23] of 19.8%, a viability, T/C [24] of 16.1% and a viability, T/C [25] of 74.8%. The viability, T/C [26] was 59%, the viability, T/C [27] was 45.4% and the viability, T/C [28] was 21.4%. The viability, T/C [29] was 15.6% and the viability, T/C [30] was 11.5%.
